Tests used:
Cdk5 [1] = molecular target: T1, Cdk5 (Mus musculus, UniProt P49615); assay: Ex vivo acute striatal brain slice pharmacology, immunoblot of phospho-Thr75 DARPP-32 and phospho-Ser1116 NR2B; assay type: cell-based; conditions: acute striatal slices, 1 h treatment, 0-10 µM; read-out: IC50, Cdk5-dependent phosphorylation of DARPP-32 and NR2B
T1 construct: from tissue; host or cells: striatum of wild-type C57BL/6 mice (acute slices, or lysates after I.V. dosing)
Method: Brain slice pharmacology was performed as described ([Nishi et al., 2000]). Briefly, the mice were decapitated, and the brains were rapidly dissected and submerged in ice-cold normal Kreb’s solution (124 mM NaCl, 4 mM KCl, 26 mM NaHCO3, 1.25 mM KH2PO4, 1.5 mM MgSO4, 10 mM D-glucose, and 1.5 mM CaCl2). The brains were subsequently sectioned into normal Kreb’s solution at 350 µ thickness. The brain slices were transferred to a 30°C solution of normal Kreb’s containing 10 µM deaminase for a 1-h recovery period. The sections were then incubated in normal Kreb’s solution with and without the indicated compounds across the dose and time ranges indicated. The sections were rapidly snap-frozen in dry ice to terminate treatment regimes.
(§1) Immunoblotting was performed as previously described ([Umfress et al., 2021]). Mouse brains were rapidly dissected in an ice-cold solution of 50 mM NaF/PBS. The regions of interest were further dissected out and rapidly snap-frozen in dry ice. The frozen tissue was homogenized in boiling lysis buffer (1% SDS, 50 mM NaF) and sonicated with several three to four pulses at 40 dB. The samples were subsequently denatured at 90°C for 5 min. Protein concentration was determined by the BCA assay, and homogenates were diluted in 4x sample buffer, separated by SDS-PAGE, and transferred to 0.45-µm nitrocellulose membranes, blocked with 5% milk solution (1 h), and probed with primary antibodies (overnight). The following antibodies were used in the study: phospho-Ser549 synapsin I (Phosphosolutions), total synapsin I (Phosphosolutions), actin (Invitrogen), phospho-Ser1116 (in-house) ([Plattner et al., 2014]), and total NR2B (Phosphosolutions), phospho-Thr75, and total DARPP-32 (Cell Signaling Technology). Visualization was performed using the Licor CLX membrane scanner and Licor secondary antibodies.
In order to assess the functional inhibition of Cdk5 in intact brain tissue by the four compounds summarized in Figure 1, acutely prepared striatal slices were treated in a dose-dependent manner (0, 0.25, 0.5, 1, 5, and 10 µM) with each inhibitor for 1 h, and Cdk5 activity was assessed via immunoblotting the phosphorylation of established Cdk5 sites, phospho-Thr75 DARPP-32 and phospho-Ser1116 NR2B ([Bibb et al., 1999]; [Plattner et al., 2014]).

Cdk5 [2] = molecular target: T1, Cdk5; assay: In vivo Cdk5 inhibition after I.V. injection, immunoblot of striatal phospho-Ser549 synapsin I; conditions: 50 mg/kg I.V., striatal lysates, various time points, data not shown
Method: The wild-type group housed male C57BL/6 mice 10–12 weeks of age were used for all in vivo, ex vivo, and behavioral studies. This age range was selected to be consistent with previous studies of conditional Cdk5 knockout mice ([Plattner et al., 2015]). 25–106 was administered in a 20-fold dose range intravenously (I.V.) at 10, 50, 100, and 200 mg/kg for pharmacokinetic studies. This delivery mode was used as I.V. injections to avoid first-pass drug metabolism observed using other injection methods ([Pond and Tozer, 1984]). […] All animal experiments were performed under approved protocols by the University of Alabama at Birmingham (UAB) Institutional Animal Care and Use Committees and in accordance with the guidelines of the Animal Welfare Act and the Guide for the Care and Use of Laboratory Animals.
as §1
Each of the four compounds tested in brain slices was further screened for their ability to penetrate the blood–brain barrier (BBB) and inhibit Cdk5-dependent activity in vivo. For these studies, cohorts of mice were treated with each compound via I.V. injection (50 mg/kg), and brain striatal lysates from various time points were subjected to quantitative immunoblot analysis for phosho-Ser549 Synapsin I levels. Three compounds, 20–107, 20–132, and 20–143, had no effect on Cdk5 activity compared to that of vehicle alone (data not shown). […] Moreover, this effect persisted even 24 h after dosing.

[3] = ref Vita et al., 2005; cited from earlier work

T1 sequence (P49615 whole entry): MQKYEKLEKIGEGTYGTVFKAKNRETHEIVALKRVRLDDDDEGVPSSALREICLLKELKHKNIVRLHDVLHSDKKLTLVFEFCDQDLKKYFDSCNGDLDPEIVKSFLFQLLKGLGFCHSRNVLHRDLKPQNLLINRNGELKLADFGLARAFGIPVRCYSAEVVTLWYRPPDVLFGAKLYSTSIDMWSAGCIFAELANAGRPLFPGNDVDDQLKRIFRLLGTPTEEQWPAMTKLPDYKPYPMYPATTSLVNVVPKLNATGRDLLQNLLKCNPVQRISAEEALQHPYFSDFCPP
T1 sequence (P61809 2-307 partner limits assumed): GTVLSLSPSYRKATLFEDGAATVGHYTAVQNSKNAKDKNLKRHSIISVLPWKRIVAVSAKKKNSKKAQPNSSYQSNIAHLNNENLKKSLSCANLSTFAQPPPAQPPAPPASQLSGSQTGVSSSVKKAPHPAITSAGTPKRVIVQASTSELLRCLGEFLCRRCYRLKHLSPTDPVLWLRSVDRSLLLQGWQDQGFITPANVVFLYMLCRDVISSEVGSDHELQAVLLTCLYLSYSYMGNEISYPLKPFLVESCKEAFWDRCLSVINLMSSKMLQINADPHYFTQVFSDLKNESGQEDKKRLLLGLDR

| IC50 (Cdk5 [1]) [nM] | effect on Cdk5 activity (phospho-Ser549 synapsin I) compared to vehicle (Cdk5 [2]) | Structure (SMILES) | distribution into the brain [3] | half-life and active metabolites [3] |
| --- | --- | --- | --- | --- |
| 500 to 1000 | no effect | O=C(C/C=C/c1ccccc1)Nc1cc(C2CCC2)[nH]n1 [25–132] |  |  |
| 500 to 1000 | no effect | O=C(Cc1ccc2c(c1)OCCO2)Nc1cc(C2CCC2)[nH]n1 [25–107] |  |  |
| 500 to 1000 | no effect | COc1ccc(CC(=O)Nc2cc(C3CCC3)[nH]n2)cc1OC [25–143] |  |  |
|  |  | CC[C@H](CO)Nc1nc(NCc2ccccc2)c2ncn(C(C)C)c2n1 [roscovitine] | could distribute into the brain | rapid half-life with no detectable active metabolites |

Reference: PMC9134315, “Systemic Administration of a Brain Permeable Cdk5 Inhibitor Alters Neurobehavior” (Frontiers in Pharmacology, 2022)
